Test results from PMC6249039 (Journal of medicinal chemistry, 2018).

Key:
[1] = cited from earlier work
HIV IN = HIV IN (Human immunodeficiency virus type 1 group M subtype B, UniProt P04585); format: biochemical; conditions: 200 μM
[2] = biological target: human carbonic anhydrase II (hCAII) (Homo sapiens, UniProt P00918); experiment: Cross-inhibition screen, human carbonic anhydrase II; format: biochemical; conditions: 200 μM
HDAC-6 = biological target: T1, HDAC-6 (Homo sapiens, UniProt Q9UBN7); experiment: Cross-inhibition screen, HDAC-6; format: biochemical; conditions: 200 μM
T1 sequence (Q9UBN7 1-1215): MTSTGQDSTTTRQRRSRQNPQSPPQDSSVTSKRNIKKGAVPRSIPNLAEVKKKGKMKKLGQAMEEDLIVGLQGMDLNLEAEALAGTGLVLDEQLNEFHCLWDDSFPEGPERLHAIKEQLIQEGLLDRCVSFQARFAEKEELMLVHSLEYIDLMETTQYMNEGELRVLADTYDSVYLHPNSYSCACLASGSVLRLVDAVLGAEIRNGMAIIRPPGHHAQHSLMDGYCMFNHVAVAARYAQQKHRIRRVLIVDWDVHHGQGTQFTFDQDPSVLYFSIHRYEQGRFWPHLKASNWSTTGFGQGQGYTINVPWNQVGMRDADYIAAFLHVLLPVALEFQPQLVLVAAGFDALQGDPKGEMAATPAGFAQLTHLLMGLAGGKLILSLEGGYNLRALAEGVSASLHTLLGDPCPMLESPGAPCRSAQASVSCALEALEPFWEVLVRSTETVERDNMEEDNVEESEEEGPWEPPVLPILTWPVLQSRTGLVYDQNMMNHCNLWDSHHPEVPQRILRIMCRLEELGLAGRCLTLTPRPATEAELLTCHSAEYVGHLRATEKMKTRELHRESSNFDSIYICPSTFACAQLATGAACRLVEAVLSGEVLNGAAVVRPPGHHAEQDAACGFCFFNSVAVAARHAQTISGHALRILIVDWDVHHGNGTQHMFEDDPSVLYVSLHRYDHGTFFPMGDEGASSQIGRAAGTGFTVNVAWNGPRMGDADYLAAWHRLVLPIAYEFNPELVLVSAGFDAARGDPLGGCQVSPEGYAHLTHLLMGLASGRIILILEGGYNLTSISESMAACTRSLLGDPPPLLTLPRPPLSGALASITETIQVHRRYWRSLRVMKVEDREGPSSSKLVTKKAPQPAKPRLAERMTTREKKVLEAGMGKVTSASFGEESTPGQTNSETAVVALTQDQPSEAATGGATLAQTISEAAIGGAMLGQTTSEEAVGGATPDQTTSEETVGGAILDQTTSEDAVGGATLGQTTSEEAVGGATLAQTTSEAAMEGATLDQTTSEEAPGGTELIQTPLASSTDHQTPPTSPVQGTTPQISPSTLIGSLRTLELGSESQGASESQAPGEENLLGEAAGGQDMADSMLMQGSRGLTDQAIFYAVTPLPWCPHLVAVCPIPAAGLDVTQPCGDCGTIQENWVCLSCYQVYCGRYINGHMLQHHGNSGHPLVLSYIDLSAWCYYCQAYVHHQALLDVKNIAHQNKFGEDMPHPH

influenza = format: cell-based

Compound	Antiviral activity in cell-based assays (influenza)	also measured
O=C(O)c1cccc(=O)n1O [Compound 5]		pKa reported ([1]; N-hydroxy donor oxygen): 7.51
Cc1cc(=O)c(O)c(C(=O)O)o1 [Compound 1, 3-Hydroxy-6-methyl-4-oxo-4H-pyran-2-carboxylic acid]	little antiviral activity	Percent inhibition, HIV IN 3'-processing activity (HIV IN): no inhibition; Percent inhibition, hCAII [2]: no inhibition; Percent inhibition, HDAC-6 (HDAC-6): no inhibition
Cc1cc(O)c(=O)c(O)cc1C(=O)O [Compound 33, 5-Methyl-2,7-dihydroxytropolone-4-carboxylic acid]	little antiviral activity	
O=c1cc[nH]c(-c2nnn[nH]2)c1O [Compound 27]	little antiviral activity	
Cc1cc(C(=O)O)c(O)c(=O)[nH]1 [Compound 18]	little antiviral activity	
O=C(O)c1occc(=O)c1O [Compound 3]	little antiviral activity	
O=c1c(O)ccccc1O [Compound 32, α-hydroxytropolone]	little antiviral activity	
Cc1cc(=O)c(O)c(C(=O)O)[nH]1 [Compound 17, 3-Hydroxy-6-methyl-4-oxo-1,4-dihydropyridine-2-carboxylic acid]	little antiviral activity	
Cc1cc(=S)c(O)c(C(=O)O)o1 [Compound 22]	little antiviral activity	
O=C(O)c1cccc(O)c1O [Compound 7]		pKa reported, first value ([1]; phenolic oxygen): 10.30; pKa reported, second value ([1]; phenolic oxygen): 13.48
